This is an account of results in patent US12312346B2, “Pyridopyrimidine compounds and methods of their use” (Tufts Medical Center, Inc., priority 2018, dated 2025).

Experiment [1] relates to human leukemia cell line HPBALL (with Notch1 mutations). Kind of experiment: Cell cycle (PI staining, S-G2-M cells) and cell number, HPBALL. The experiment is classed as cell-based. As for the experimental part:
FIG. 1A is a series of charts showing representative cell cycle profiles of human leukemia cell line HPBALL (with Notch1 mutations) treated with a vehicle (V) (for ribociclib (LEE) or compound GD) or LEE or compound GD for 6 days at 1, 5, 10, and 20 μM.
FIG. 1B is a histogram summarizing the cell cycle distribution of the HPBALL cell line treated with compound GD, as described for FIG. 1A. Data shown are mean±S.D. (n=6); *P<0.05 vs its vehicle controls, t-test.
FIG. 1C is a histogram summarizing the cell cycle distribution of the HPBALL cell line treated with ribociclib (LEE), as described for FIG. 1A. Data shown are mean±S.D. (n=6); *P<0.05 vs its vehicle controls, t-test.
FIG. 1D is a chart the percentage of S-G2-M cells in FIGS. 1B and 1C. IC50 is the concentration of an inhibitor where the response (here is the inhibition of proliferation) is reduced by half.
FIG. 1E is a bar graph summarizing the cell numbers of HPBALL cells treated with either GD with different doses or LEE (20 μM) for 6 days. Data shown are mean±S.D. (n=6); *P<0.05 vs vehicles (0) control, t-test.
HCl salt of 6-acetyl-5-methyl-2-((4-(piperazin-1-ylmethyl)thiazol-2-yl)amino)pyrido[2,3-d]pyrimidin-7(8H)-one (Compound GD) prepared in Example 1 was examined for its inhibitory activity in cancer cell lines and WT and CDK6^−/− mouse embryonic fibroblasts (MEFs) and stromal vascular fractions (SVFs). […]
Table 2: Experimental Procedures: sensitivity to CDK6 kinase activity inhibition was tested by incubating different cell lines in the presence of CDK6 inhibitor GD007/PBS for either 24 hours for detecting the status of pRB-780 phosphorylation, or 5 days for determining the effect of GD007 on cell proliferation. (1) By immunoblotting (WB), we will detect phospho-pRB-S^780, one of the substrates of CDK6 kinase; (2) By using FACS analysis, we will stain treated cells with Propidium Iodide (PI), a commonly used fluorescent intercalator, to measure the subpopulation of cell cycle to reveal any impact of CDK6 inhibition on cell proliferation; (3) cell numbers will be counted using hemocytometer.

Experiment [2] concerns differentiated SVF cells (white adipocyte formation). As to the kind of experiment: Oil Red O staining of differentiated SVF cells with WAT inducers. The experiment is classed as cell-based. As to conditions: vs vehicle. As for the experimental part:
FIG. 8A is an image of Oil Red O staining of differentiated SVF cells treated with a vehicle or compound GD (5 μM) in the presence of white adipose tissue (WAT) inducers. Scale bar: 100 μM
FIG. 8C is an image of Oil Red O staining of differentiated SVF cells treated with a vehicle or compound GD (0.1 μM) in the presence of white adipose tissue (WAT) inducers. Scale bar: 400 μM for the top 2 images, and 100 μM for the bottom two images.
Beige cells are associated with protection against obesity and metabolic syndrome (WO 2017/161253). Accordingly, compound GD and related compounds of the invention can be used for treating obesity and related metabolic diseases.

The test system of experiment [3] is CDK6^−/− SVFs (KO-SVFs). As to the kind of experiment: Cell number, KO-SVFs. In kind it is cell-based, mouse. As to conditions: 6 days; GD 0.1-10 μM. On the procedure:
FIG. 7B is a bar graph showing the cell numbers of KO-SVFs treated with LEE (10 μM) or compound GD at 0.1, 0.5, 1.0, 5.0, and 10 μM for 6 days. Data shown are mean±S.D. (n=6); *P<0.05 vs its vehicle control, t-test.
HCl salt of 6-acetyl-5-methyl-2-((4-(piperazin-1-ylmethyl)thiazol-2-yl)amino)pyrido[2,3-d]pyrimidin-7(8H)-one (Compound GD) prepared in Example 1 was examined for its inhibitory activity in cancer cell lines and WT and CDK6^−/− mouse embryonic fibroblasts (MEFs) and stromal vascular fractions (SVFs). MEFs and SVFs are enriched with mesenchymal stem cells (MSC) and pre-adipocytes which can differentiate into a variety of cell types, including adipocytes.

Each structure is given as a SMILES string.

On to `CC(=O)c1c(C)c2cnc(Nc3nc(CN4CCNCC4)cs3)nc2[nH]c1=O` [Compound GD, 6-acetyl-5-methyl-2-((4-(piperazin-1-ylmethyl)thiazol-2-yl)amino)pyrido[2,3-d]pyrimidin-7(8H)-one], for which the IC50 in experiment [1] (Homo sapiens, 144 h, HPBALL, 6 days, read-out: IC50 (inhibition of proliferation, percentage of S-G2-M cells)) was roughly 4 µM. Besides, the “Compound GD Efficacy” value in experiment [1] (Leukemic cells: HPBALL, PI Staining, and cell number counting) is reported as “Efficacious”. In addition, the white adipocyte formation result is reported as “inhibited white adipocyte formation” in experiment [2] (GD 0.1 μM, FIG. 8C) and “inhibited white adipocyte formation” in experiment [2] (GD 5 μM, FIG. 8A). Further, the “proliferation of CDK6−/− SVFs” value in experiment [3] is on record as “little effect”.
